From patent US20260297070A1, “CYCLIC [COMPOUND LEFT OUT] WRN INHIBITORS” (Nimbus Wadjet, Inc., priority 2023, published 2026) come the findings set out here.

The structures appear in SMILES notation.

The test deals with T1, human Werner helicase (WRN-BV08, Uniprot Q14191, amino acids 517-1235 with L1074F point mutation) (Homo sapiens, UniProt Q14191, L1074F).
T1 construct: Uniprot Q14191, amino acids 517-1235 with L1074F point mutation; TEV-cleavable 8×His (C, cleaved yes); made in house; host or cells: Sf9 insect cells (baculovirus)
T1 sequence (Q14191 with tags, fused parts or gaps L1074F limits assumed): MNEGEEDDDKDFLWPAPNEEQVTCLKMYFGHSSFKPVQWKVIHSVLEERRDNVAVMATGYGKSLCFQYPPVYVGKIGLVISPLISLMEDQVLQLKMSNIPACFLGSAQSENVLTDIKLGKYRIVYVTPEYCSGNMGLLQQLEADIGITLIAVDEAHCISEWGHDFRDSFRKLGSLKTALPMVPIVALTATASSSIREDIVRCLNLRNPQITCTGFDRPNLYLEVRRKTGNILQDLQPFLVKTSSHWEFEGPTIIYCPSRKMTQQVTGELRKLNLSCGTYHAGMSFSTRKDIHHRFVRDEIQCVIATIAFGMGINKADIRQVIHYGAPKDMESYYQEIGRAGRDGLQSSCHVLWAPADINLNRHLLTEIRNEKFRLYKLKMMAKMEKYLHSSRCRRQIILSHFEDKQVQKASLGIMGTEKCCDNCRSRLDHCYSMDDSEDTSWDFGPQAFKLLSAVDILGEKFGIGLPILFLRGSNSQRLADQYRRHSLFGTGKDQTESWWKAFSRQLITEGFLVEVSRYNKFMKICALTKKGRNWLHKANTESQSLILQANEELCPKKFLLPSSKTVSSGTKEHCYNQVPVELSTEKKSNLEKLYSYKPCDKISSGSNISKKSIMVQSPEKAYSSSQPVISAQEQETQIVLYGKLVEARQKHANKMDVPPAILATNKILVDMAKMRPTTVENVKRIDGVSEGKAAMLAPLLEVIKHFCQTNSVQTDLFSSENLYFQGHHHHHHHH
In words: WRN (BV08) ADP-Glo Assay. The format is biochemical. Particulars: 0.15 nM WRN, 5 μM ATP, 0.1 nM DNA duplex, 15 min preincubation, 60 min at 25° C., pH 7.5, 1% DMSO; read-out: ADP-Glo_hWRN_IC50. The gist of the method: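 Helicase ATPase activity is measured at 25 °C over 60 min using 0.15 nM enzyme, 5 μM ATP and 0.1 nM DNA duplex, final DMSO 1%. ADP production is detected by luminescence, with IC50 derived by curve fitting.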
Regarding `COc1cc(CN(C(=O)C2CN(C)c3cc(-c4ccc(F)cc4)ccc32)C2C=CS(=O)(=O)C2)ccn1` (stereo not drawn) [I-385, N-(1,1-dioxo-2,3-dihydro-1lambda6-thiophen-3-yl)-6-(4-fluorophenyl)-N-[(2-methoxypyridin-4-yl)methyl]-1-methyl-2,3-dihydro-1H-indole-3-carboxamide], the IC50 was above 50 µM.

On to `CC(C(=O)N(Cc1ccnc(C(C)(C)O)c1)C1C=CS(=O)(=O)C1)n1cc(-c2cc(F)c(F)c(F)c2)cn1` (single isomer, unassigned) [I-777, (2R*)-N-[(3R**)-1,1-dioxo-2,3-dihydro-1lambda6-thiophen-3-yl]-N-{[2-(2-hydroxypropan-2-yl)pyridin-4-yl]methyl}-2-[4-(3,4,5-trifluorophenyl)-1H-pyrazol-1-yl]propanamide], for which the IC50 is below 0.5 µM.

`CN(C)C(=O)C(C(=O)N(Cc1ccnc(C(C)(C)O)c1)C1C=CS(=O)(=O)C1)c1ccc(-c2ccc(F)c(F)c2)cc1F` (stereo not drawn) [I-24, N′-(1,1-dioxo-2,3-dihydro-1lambda6-thiophen-3-yl)-N′-{[2-(2-hydroxypropan-2-yl)pyridin-4-yl]methyl}-N,N-dimethyl-2-{3,3′,4′-trifluoro-[1,1′-biphenyl]-4-yl}propanediamide]: the IC50 was below 0.5 µM.

`COCCOC(C(=O)N(Cc1ccnc(C(C)(C)O)c1)[C@@H]1C=CS(=O)(=O)C1)c1ccc(S(F)(F)(F)(F)F)cc1` (single isomer, unassigned) [I-765]: the IC50 was in the range of 0.5 to 5 µM.

Regarding `O=C(Cc1cnn(-c2ccccc2)c1)N(Cc1ccncc1)C1C=CS(=O)(=O)C1` (stereo not drawn) [I-409, N-(1,1-dioxo-2,3-dihydro-1lambda6-thiophen-3-yl)-2-(1-phenyl-1H-pyrazol-4-yl)-N-[(pyridin-4-yl)methyl]acetamide], the IC50 was above 50 µM.

For the compound `CC(C)(O)c1cc(CN(C(=O)c2c[nH]c3cc(-c4ccc(F)cc4)ccc23)C2C=CS(=O)(=O)C2)ccn1` (stereo not drawn) [I-424, N-(1,1-dioxo-2,3-dihydro-1lambda6-thiophen-3-yl)-6-(4-fluorophenyl)-N-{[2-(2-hydroxypropan-2-yl)pyridin-4-yl]methyl}-1H-indole-3-carboxamide], the IC50 was above 50 µM.

For `O=C(Cc1ccc(-n2cccc2)cc1)N(Cc1ccccc1)C1C=CS(=O)(=O)C1` (single isomer, unassigned) [I-262], the IC50 is 5 to 10 µM.

For the compound `O=C(Cc1ccc(S(F)(F)(F)(F)F)cc1)N(Cc1nc(C2CCC2)cs1)C1C=CS(=O)(=O)C1` (stereo not drawn) [I-14, N-[(4-cyclobutyl-1,3-thiazol-2-yl)methyl]-N-(1,1-dioxo-2,3-dihydro-1lambda6-thiophen-3-yl)-2-[4-(pentafluoro-lambda6-sulfanyl)phenyl]acetamide], the IC50 is below 0.5 µM.

Consider `O=C(Cc1cc2ccccc2s1)N(Cc1ccncc1)C1C=CS(=O)(=O)C1` (stereo not drawn) [I-301, 2-(1-benzothiophen-2-yl)-N-(1,1-dioxo-2,3-dihydro-1lambda6-thiophen-3-yl)-N-[(pyridin-4-yl)methyl]acetamide], for which the IC50 fell in the range of 10 to 50 µM.

On to `O=C(Cc1c[nH]c2ccccc12)N(Cc1ccncc1)C1C=CS(=O)(=O)C1` (stereo not drawn) [I-493, N-(1,1-dioxo-2,3-dihydro-1lambda6-thiophen-3-yl)-2-(1H-indol-3-yl)-N-[(pyridin-4-yl)methyl]acetamide], for which the IC50 was above 50 µM.

For `COc1cc(CN(C(=O)C(c2ccc(-c3ccc(F)c(F)c3)cc2F)n2cccn2)[C@@H]2C=CS(=O)(=O)C2)ccn1` (stereo partly drawn) [I-683, N-[(3R)-1,1-dioxo-2,3-dihydro-1lambda6-thiophen-3-yl]-N-[(2-methoxypyridin-4-yl)methyl]-2-(1H-pyrazol-1-yl)-2-{3,3′,4′-trifluoro-[1,1′-biphenyl]-4-yl}acetamide], the IC50 was below 0.5 µM.

As for `N#Cc1ccc(CC(=O)N(Cc2ccncc2)C2C=CS(=O)(=O)C2)cc1` (stereo not drawn) [I-513, 2-(4-cyanophenyl)-N-(1,1-dioxo-2,3-dihydro-1lambda6-thiophen-3-yl)-N-[(pyridin-4-yl)methyl]acetamide], the IC50 was above 50 µM.
